Measurements reported in ChEMBL document CHEMBL3885881, “DrugMatrix”.

Species: Rattus norvegicus
Assay: DrugMatrix - Regimen: Daily Repeat
Type: toxicity, organism-based, Sprague-Dawley
Set-up: regimen Daily Repeat, gender Male, age 6-8 weeks
Settings: in vivo, po, route oral GAVAGE, vehicle .5 % CMC; for BASOPHIL / EOSINOPHIL / ERYTHROCYTE COUNT / HEMATOCRIT / HEMOGLOBIN / LEUKOCYTE COUNT / LYMPHOCYTE / MEAN CORPUSCULAR HEMOGLOBIN / MEAN CORPUSCULAR HEMOGLOBIN CONCENTRATION / MEAN CORPUSCULAR VOLUME / MONOCYTE / NEUTROPHIL / PLATELET COUNT: tissue Blood; for ALANINE AMINOTRANSFERASE / ALBUMIN / ALKALINE PHOSPHATASE / ASPARTATE AMINOTRANSFERASE / BLOOD UREA NITROGEN / CHLORIDE / CHOLESTEROL / CREATINE PHOSPHOKINASE / CREATININE / GLUCOSE / PHOSPHORUS / POTASSIUM / SODIUM / TOTAL BILIRUBIN / TOTAL PROTEIN: tissue Plasma
[1] = 0 mg/kg, 72 h, dose level Control, time 3 day
[2] = 0 mg/kg, 120 h, dose level Control, time 5 day
[3] = 120 mg/kg, 72 h, dose level Low, time 3 day
[4] = 120 mg/kg, 120 h, dose level Low, time 5 day
[5] = 1500 mg/kg, 72 h, dose level High, time 3 day
[6] = 1500 mg/kg, 120 h, dose level High, time 5 day

CC1CC(OC(=O)C(O)c2ccccc2)CC(C)(C)C1 (stereo not drawn) [CYCLANDELATE]
BASOPHIL [1]: 0%
EOSINOPHIL [1]: 0%
ERYTHROCYTE COUNT [1]: 6.34 x10E6/uL
HEMATOCRIT [1]: 37.62%
HEMOGLOBIN [1]: 14.82 G/DL
LEUKOCYTE COUNT [1]: 11.18 x10E3/uL
LYMPHOCYTE [1]: 87.5%
MEAN CORPUSCULAR HEMOGLOBIN [1]: 23.48 pg
MEAN CORPUSCULAR HEMOGLOBIN CONCENTRATION [1]: 39.5 G/DL
MEAN CORPUSCULAR VOLUME [1]: 59.45 fL
MONOCYTE [1]: 1.67%
NEUTROPHIL [1]: 10.83%
PLATELET COUNT [1]: 1074.83 x10E3/uL
ALANINE AMINOTRANSFERASE [1]: 36.5 u/L
ALBUMIN [1]: 3.9 G/DL
ALKALINE PHOSPHATASE [1]: 370.17 u/L
ASPARTATE AMINOTRANSFERASE [1]: 63.17 u/L
BLOOD UREA NITROGEN [1]: 16.83 mg/dL
CHLORIDE [1]: 99.33 MEQ/L
CHOLESTEROL [1]: 64.33 mg/dL
CREATINE PHOSPHOKINASE [1]: 127 u/L
CREATININE [1]: 0.55 mg/dL
GLUCOSE [1]: 173.5 mg/dL
PHOSPHORUS [1]: 10.08 mg/dL
POTASSIUM [1]: 6.23 MEQ/L
SODIUM [1]: 143.5 MEQ/L
TOTAL BILIRUBIN [1]: 0.52 mg/dL
TOTAL PROTEIN [1]: 6.35 G/DL
BASOPHIL [2]: 0%
EOSINOPHIL [2]: 0.17%
ERYTHROCYTE COUNT [2]: 6.12 x10E6/uL
HEMATOCRIT [2]: 37.08%
HEMOGLOBIN [2]: 14.82 G/DL
LEUKOCYTE COUNT [2]: 11.87 x10E3/uL
LYMPHOCYTE [2]: 83.33%
MEAN CORPUSCULAR HEMOGLOBIN [2]: 24.25 pg
MEAN CORPUSCULAR HEMOGLOBIN CONCENTRATION [2]: 39.97 G/DL
MEAN CORPUSCULAR VOLUME [2]: 60.65 fL
MONOCYTE [2]: 1.5%
NEUTROPHIL [2]: 15%
PLATELET COUNT [2]: 1042.83 x10E3/uL
ALANINE AMINOTRANSFERASE [2]: 46 u/L
ALBUMIN [2]: 3.82 G/DL
ALKALINE PHOSPHATASE [2]: 369.5 u/L
ASPARTATE AMINOTRANSFERASE [2]: 65 u/L
BLOOD UREA NITROGEN [2]: 16.33 mg/dL
CHLORIDE [2]: 100.67 MEQ/L
CHOLESTEROL [2]: 57.17 mg/dL
CREATINE PHOSPHOKINASE [2]: 130 u/L
CREATININE [2]: 0.53 mg/dL
GLUCOSE [2]: 163.33 mg/dL
PHOSPHORUS [2]: 9.53 mg/dL
POTASSIUM [2]: 6.27 MEQ/L
SODIUM [2]: 144.83 MEQ/L
TOTAL BILIRUBIN [2]: 0.55 mg/dL
TOTAL PROTEIN [2]: 6.32 G/DL
BASOPHIL [3]: 0%
EOSINOPHIL [3]: 0.67%
ERYTHROCYTE COUNT [3]: 6.2 x10E6/uL
HEMATOCRIT [3]: 37.27%
HEMOGLOBIN [3]: 14.57 G/DL
LEUKOCYTE COUNT [3]: 11.3 x10E3/uL
LYMPHOCYTE [3]: 86.33%
MEAN CORPUSCULAR HEMOGLOBIN [3]: 23.5 pg
MEAN CORPUSCULAR HEMOGLOBIN CONCENTRATION [3]: 39.1 G/DL
MEAN CORPUSCULAR VOLUME [3]: 60.1 fL
MONOCYTE [3]: 1.33%
NEUTROPHIL [3]: 11.67%
PLATELET COUNT [3]: 1168 x10E3/uL
ALANINE AMINOTRANSFERASE [3]: 38.33 u/L
ALBUMIN [3]: 3.93 G/DL
ALKALINE PHOSPHATASE [3]: 369.67 u/L
ASPARTATE AMINOTRANSFERASE [3]: 55.67 u/L
BLOOD UREA NITROGEN [3]: 14 mg/dL
CHLORIDE [3]: 99 MEQ/L
CHOLESTEROL [3]: 67.67 mg/dL
CREATINE PHOSPHOKINASE [3]: 114.33 u/L
CREATININE [3]: 0.53 mg/dL
GLUCOSE [3]: 156 mg/dL
PHOSPHORUS [3]: 10.37 mg/dL
POTASSIUM [3]: 6.13 MEQ/L
SODIUM [3]: 144.67 MEQ/L
TOTAL BILIRUBIN [3]: 0.37 mg/dL
TOTAL PROTEIN [3]: 6.33 G/DL
BASOPHIL [4]: 0%
EOSINOPHIL [4]: 0%
ERYTHROCYTE COUNT [4]: 5.8 x10E6/uL
HEMATOCRIT [4]: 35%
HEMOGLOBIN [4]: 14.13 G/DL
LEUKOCYTE COUNT [4]: 12.1 x10E3/uL
LYMPHOCYTE [4]: 90.33%
MEAN CORPUSCULAR HEMOGLOBIN [4]: 24.37 pg
MEAN CORPUSCULAR HEMOGLOBIN CONCENTRATION [4]: 40.4 G/DL
MEAN CORPUSCULAR VOLUME [4]: 60.3 fL
MONOCYTE [4]: 0.67%
NEUTROPHIL [4]: 9%
PLATELET COUNT [4]: 1005.67 x10E3/uL
ALANINE AMINOTRANSFERASE [4]: 37 u/L
ALBUMIN [4]: 3.63 G/DL
ALKALINE PHOSPHATASE [4]: 308.67 u/L
ASPARTATE AMINOTRANSFERASE [4]: 59 u/L
BLOOD UREA NITROGEN [4]: 13.33 mg/dL
CHLORIDE [4]: 99.67 MEQ/L
CHOLESTEROL [4]: 64 mg/dL
CREATINE PHOSPHOKINASE [4]: 121.33 u/L
CREATININE [4]: 0.53 mg/dL
GLUCOSE [4]: 159 mg/dL
PHOSPHORUS [4]: 10.83 mg/dL
POTASSIUM [4]: 6.27 MEQ/L
SODIUM [4]: 145.33 MEQ/L
TOTAL BILIRUBIN [4]: 0.37 mg/dL
TOTAL PROTEIN [4]: 5.93 G/DL
BASOPHIL [5]: 0%
EOSINOPHIL [5]: 0%
ERYTHROCYTE COUNT [5]: 5.97 x10E6/uL
HEMATOCRIT [5]: 37.13%
HEMOGLOBIN [5]: 14.77 G/DL
LEUKOCYTE COUNT [5]: 13.43 x10E3/uL
LYMPHOCYTE [5]: 84.67%
MEAN CORPUSCULAR HEMOGLOBIN [5]: 24.83 pg
MEAN CORPUSCULAR HEMOGLOBIN CONCENTRATION [5]: 39.77 G/DL
MEAN CORPUSCULAR VOLUME [5]: 62.27 fL
MONOCYTE [5]: 0.33%
NEUTROPHIL [5]: 15%
PLATELET COUNT [5]: 1199 x10E3/uL
ALANINE AMINOTRANSFERASE [5]: 42.67 u/L
ALBUMIN [5]: 3.77 G/DL
ALKALINE PHOSPHATASE [5]: 377.33 u/L
ASPARTATE AMINOTRANSFERASE [5]: 59.67 u/L
BLOOD UREA NITROGEN [5]: 13.67 mg/dL
CHLORIDE [5]: 98.33 MEQ/L
CHOLESTEROL [5]: 67.67 mg/dL
CREATINE PHOSPHOKINASE [5]: 127.67 u/L
CREATININE [5]: 0.57 mg/dL
GLUCOSE [5]: 161.67 mg/dL
PHOSPHORUS [5]: 11.5 mg/dL
POTASSIUM [5]: 6.17 MEQ/L
SODIUM [5]: 143.33 MEQ/L
TOTAL BILIRUBIN [5]: 0.57 mg/dL
TOTAL PROTEIN [5]: 6.03 G/DL
BASOPHIL [6]: 0%
EOSINOPHIL [6]: 0.5%
ERYTHROCYTE COUNT [6]: 5.77 x10E6/uL
HEMATOCRIT [6]: 35.95%
HEMOGLOBIN [6]: 14.35 G/DL
LEUKOCYTE COUNT [6]: 10.4 x10E3/uL
LYMPHOCYTE [6]: 91.5%
MEAN CORPUSCULAR HEMOGLOBIN [6]: 24.9 pg
MEAN CORPUSCULAR HEMOGLOBIN CONCENTRATION [6]: 39.9 G/DL
MEAN CORPUSCULAR VOLUME [6]: 62.4 fL
MONOCYTE [6]: 0%
NEUTROPHIL [6]: 8%
PLATELET COUNT [6]: 1077.5 x10E3/uL
ALANINE AMINOTRANSFERASE [6]: 34.67 u/L
ALBUMIN [6]: 3.77 G/DL
ALKALINE PHOSPHATASE [6]: 393 u/L
ASPARTATE AMINOTRANSFERASE [6]: 55.67 u/L
BLOOD UREA NITROGEN [6]: 14.33 mg/dL
CHLORIDE [6]: 100 MEQ/L
CHOLESTEROL [6]: 87 mg/dL
CREATINE PHOSPHOKINASE [6]: 123.67 u/L
CREATININE [6]: 0.57 mg/dL
GLUCOSE [6]: 158 mg/dL
PHOSPHORUS [6]: 11.47 mg/dL
POTASSIUM [6]: 6.4 MEQ/L
SODIUM [6]: 144.33 MEQ/L
TOTAL BILIRUBIN [6]: 0.37 mg/dL
TOTAL PROTEIN [6]: 6.17 G/DL
